# Laboratory results as given in PubChem BioAssay (NCI).
#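 Cells were grown in 96-well plates and exposed to each compound for 48 hours at five concentrations; endpoints were interpolated linearly between bracketing concentrations, or set to the highest concentration if not reached. TGI: total growth inhibition.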
# What was measured:
# Experiment in all cases: NCI-60 cell line screen, 48 h
# 786-0 renal = system: 786-0 renal
# A498 renal = system: A498 renal
# A549 NSCLC = system: A549 NSCLC
# ACHN renal = system: ACHN renal
# CAKI-1 renal = system: CAKI-1 renal
# CCRF-CEM leukemia = system: CCRF-CEM leukemia
# COLO 205 colon = system: COLO 205 colon
# DLD-1 colon = system: DLD-1 colon
# DMS 114 small cell lung = system: DMS 114 small cell lung
# DMS 273 small cell lung = system: DMS 273 small cell lung
# EKVX NSCLC = system: EKVX NSCLC
# HCC-2998 colon = system: HCC-2998 colon
# HCT-116 colon = system: HCT-116 colon
# HCT-15 colon = system: HCT-15 colon
# HL-60(TB) leukemia = system: HL-60(TB) leukemia
# HOP-62 NSCLC = system: HOP-62 NSCLC
# HOP-92 NSCLC = system: HOP-92 NSCLC
# HT29 colon = system: HT29 colon
# IGROV1 ovarian = system: IGROV1 ovarian
# K-562 leukemia = system: K-562 leukemia
# KM12 colon = system: KM12 colon
# KM20L2 colon = system: KM20L2 colon
# LOX IMVI melanoma = system: LOX IMVI melanoma
# LXFL 529 NSCLC = system: LXFL 529 NSCLC
# M14 melanoma = system: M14 melanoma
# MALME-3M melanoma = system: MALME-3M melanoma
# MOLT-4 leukemia = system: MOLT-4 leukemia
# NCI-H226 lung = system: NCI-H226 lung
# NCI-H23 lung = system: NCI-H23 lung
# NCI-H460 lung = system: NCI-H460 lung
# NCI-H522 lung = system: NCI-H522 lung
# OVCAR-3 ovarian = system: OVCAR-3 ovarian
# OVCAR-4 ovarian = system: OVCAR-4 ovarian
# OVCAR-5 ovarian = system: OVCAR-5 ovarian
# OVCAR-8 ovarian = system: OVCAR-8 ovarian
# RPMI-8226 leukemia = system: RPMI-8226 leukemia
# RXF 393 renal = system: RXF 393 renal
# RXF-631 renal = system: RXF-631 renal
# SF-268 CNS = system: SF-268 CNS
# SF-539 CNS = system: SF-539 CNS
# SK-MEL-2 melanoma = system: SK-MEL-2 melanoma
# SK-MEL-28 melanoma = system: SK-MEL-28 melanoma
# SK-MEL-5 melanoma = system: SK-MEL-5 melanoma
# SK-OV-3 ovarian = system: SK-OV-3 ovarian
# SN12C renal = system: SN12C renal
# SNB-19 CNS = system: SNB-19 CNS
# SNB-75 CNS = system: SNB-75 CNS
# SNB-78 CNS = system: SNB-78 CNS
# SR leukemia = system: SR leukemia
# SW-620 colon = system: SW-620 colon
# TK-10 renal = system: TK-10 renal
# U251 CNS = system: U251 CNS
# UACC-257 melanoma = system: UACC-257 melanoma
# UO-31 renal = system: UO-31 renal
# XF 498 CNS = system: XF 498 CNS
# HOP-18 NSCLC = system: HOP-18 NSCLC
# M19-MEL melanoma = system: M19-MEL melanoma
# SF-295 CNS = system: SF-295 CNS
# UACC-62 melanoma = system: UACC-62 melanoma
structure (smiles),measurement,setting,value
CC(=O)Nc1[nH]n(C)c(=O)c1-c1nnc(C)s1,TGI,786-0 renal,> 100 µM
same,TGI,A498 renal,> 100 µM
same,TGI,A549 NSCLC,> 100 µM
same,TGI,ACHN renal,> 100 µM
same,TGI,CAKI-1 renal,> 100 µM
same,TGI,CCRF-CEM leukemia,> 100 µM
same,TGI,COLO 205 colon,> 100 µM
same,TGI,DLD-1 colon,> 100 µM
same,TGI,DMS 114 small cell lung,> 100 µM
same,TGI,DMS 273 small cell lung,> 100 µM
same,TGI,EKVX NSCLC,> 100 µM
same,TGI,HCC-2998 colon,> 100 µM
same,TGI,HCT-116 colon,> 100 µM
same,TGI,HCT-15 colon,> 100 µM
same,TGI,HL-60(TB) leukemia,> 100 µM
same,TGI,HOP-62 NSCLC,> 100 µM
same,TGI,HOP-92 NSCLC,> 100 µM
same,TGI,HT29 colon,> 100 µM
same,TGI,IGROV1 ovarian,> 100 µM
same,TGI,K-562 leukemia,> 100 µM
same,TGI,KM12 colon,> 100 µM
same,TGI,KM20L2 colon,> 100 µM
same,TGI,LOX IMVI melanoma,> 100 µM
same,TGI,LXFL 529 NSCLC,> 100 µM
same,TGI,M14 melanoma,> 100 µM
same,TGI,MALME-3M melanoma,> 100 µM
same,TGI,MOLT-4 leukemia,> 100 µM
same,TGI,NCI-H226 lung,> 100 µM
same,TGI,NCI-H23 lung,> 100 µM
same,TGI,NCI-H460 lung,> 100 µM
same,TGI,NCI-H522 lung,> 100 µM
same,TGI,OVCAR-3 ovarian,> 100 µM
same,TGI,OVCAR-4 ovarian,> 100 µM
same,TGI,OVCAR-5 ovarian,> 100 µM
same,TGI,OVCAR-8 ovarian,> 100 µM
same,TGI,RPMI-8226 leukemia,> 100 µM
same,TGI,RXF 393 renal,> 100 µM
same,TGI,RXF-631 renal,> 100 µM
same,TGI,SF-268 CNS,> 100 µM
same,TGI,SF-539 CNS,> 100 µM
same,TGI,SK-MEL-2 melanoma,> 100 µM
same,TGI,SK-MEL-28 melanoma,> 100 µM
same,TGI,SK-MEL-5 melanoma,> 100 µM
same,TGI,SK-OV-3 ovarian,> 100 µM
same,TGI,SN12C renal,> 100 µM
same,TGI,SNB-19 CNS,> 100 µM
same,TGI,SNB-75 CNS,> 100 µM
same,TGI,SNB-78 CNS,> 100 µM
same,TGI,SR leukemia,> 100 µM
same,TGI,SW-620 colon,> 100 µM
same,TGI,TK-10 renal,> 100 µM
same,TGI,U251 CNS,> 100 µM
same,TGI,UACC-257 melanoma,> 100 µM
same,TGI,UO-31 renal,> 100 µM
same,TGI,XF 498 CNS,> 100 µM
COc1ccccc1NC(=O)C1=C(C)NC(C)=C(C(=O)Nc2ccccc2OC)C1c1ccccc1[N+](=O)[O-],TGI,786-0 renal,35.5 µM
same,TGI,A549 NSCLC,> 100 µM
same,TGI,ACHN renal,37.5 µM
same,TGI,CCRF-CEM leukemia,48.9 µM
same,TGI,COLO 205 colon,31.6 µM
same,TGI,DLD-1 colon,36.5 µM
same,TGI,DMS 114 small cell lung,31.2 µM
same,TGI,DMS 273 small cell lung,34.9 µM
same,TGI,EKVX NSCLC,> 100 µM
same,TGI,HCC-2998 colon,33 µM
same,TGI,HCT-116 colon,> 100 µM
same,TGI,HCT-15 colon,27.5 µM
same,TGI,HL-60(TB) leukemia,45.3 µM
same,TGI,HOP-18 NSCLC,> 100 µM
same,TGI,HOP-62 NSCLC,88.2 µM
same,TGI,HOP-92 NSCLC,59.5 µM
same,TGI,HT29 colon,37 µM
same,TGI,IGROV1 ovarian,45 µM
same,TGI,K-562 leukemia,65 µM
same,TGI,KM12 colon,35 µM
same,TGI,LOX IMVI melanoma,33.2 µM
same,TGI,LXFL 529 NSCLC,25 µM
same,TGI,M14 melanoma,30 µM
same,TGI,M19-MEL melanoma,49 µM
same,TGI,MALME-3M melanoma,36.2 µM
same,TGI,MOLT-4 leukemia,49.5 µM
same,TGI,NCI-H226 lung,35.2 µM
same,TGI,NCI-H23 lung,43.6 µM
same,TGI,NCI-H460 lung,32.8 µM
same,TGI,NCI-H522 lung,26.8 µM
same,TGI,OVCAR-3 ovarian,39.1 µM
same,TGI,OVCAR-4 ovarian,46.3 µM
same,TGI,OVCAR-5 ovarian,85.4 µM
same,TGI,OVCAR-8 ovarian,40.5 µM
same,TGI,RPMI-8226 leukemia,65.6 µM
same,TGI,RXF 393 renal,> 100 µM
same,TGI,RXF-631 renal,53.6 µM
same,TGI,SF-268 CNS,50.7 µM
same,TGI,SF-295 CNS,> 100 µM
same,TGI,SF-539 CNS,37 µM
same,TGI,SK-MEL-2 melanoma,26 µM
same,TGI,SK-MEL-28 melanoma,33.9 µM
same,TGI,SK-MEL-5 melanoma,74.3 µM
same,TGI,SK-OV-3 ovarian,68 µM
same,TGI,SN12C renal,37.4 µM
same,TGI,SNB-75 CNS,> 100 µM
same,TGI,SNB-78 CNS,> 100 µM
same,TGI,SR leukemia,39.6 µM
same,TGI,TK-10 renal,59.2 µM
same,TGI,U251 CNS,29.7 µM
same,TGI,UACC-257 melanoma,47.5 µM
same,TGI,UACC-62 melanoma,54.1 µM
same,TGI,UO-31 renal,37.6 µM
same,TGI,XF 498 CNS,46.2 µM
